In patent US4874856A, “3-(substituted)propenyl-7-(aminothiazolylacetamido) ceph-3-em-4-carboxylic acids and esters thereof” (Bristol-Myers Company, priority 1987, dated 1989):
In brackets after ≈: the same amount, converted by molar mass. Like-named read-outs stand apart in the source and are kept apart here.

Legend:
Test in all cases: In vitro MIC, Mueller-Hinton agar, inoculum 10^6 cells/ml
Format in all cases: cell-based
[1] = test system: Citrobacter freundii
Source text: (§1) Table 6 is a comparison of the in vitro antibacterial activities of Compound 29 and the vinyl homolog thereof FK-482 against clinically important pathogens. Thirty-seven organisms were more than 4-fold more susceptible to Compound 29 than to FK-482. FK-482 has the following formula and is described by Takaya, et al. in U.S. Pat. No. 4,559,334 patented Dec. 17, 1985 (filed Oct. 20, 1983). [drawing 14]
(§2) *; Geometric mean of MIC (μg/ml)
(§3) Mueller-Hinton agar Inoculum size; 10^6 cells/ml

[2] = test system: Enterobacter aerogenes; conditions: Klebsiella aerogenes
Source text: as §1, §2, §3

[3] = test system: Enterobacter cloacae
Source text: as §1, §2, §3

[4] = test system: Morganella morganii
Source text: as §1, §2, §3

[5] = test system: Proteus mirabilis
Source text: as §1, §2, §3

[6] = test system: Proteus vulgaris
Source text: as §1, §2, §3

[7] = test system: Providencia rettgeri
Source text: as §1, §2, §3

[8] = test system: Serratia marcescens
Source text: as §1, §2, §3

[9] = test system: Serratia species
Source text: as §1, §2, §3

C=CC1=C(C(=O)O)N2C(=O)[C@@H](NC(=O)/C(=N\O)c3csc(N)n3)[C@H]2SC1 [FK-482, reference compound]
MIC ([1]; (GM) of the Citrobacter freundii strains, read-out: Geometric mean of MIC): 4.1 µg/mL (≈ 10.4 µM)
MIC ([1]; strain A21312, read-out: MIC): > 50 µg/mL
MIC ([1]; strain A22140, read-out: MIC): 3.1 µg/mL (≈ 7.84 µM)
MIC ([1]; strain A22141, read-out: MIC): 3.1 µg/mL (≈ 7.84 µM)
MIC ([1]; strain A22142, read-out: MIC): 0.8 µg/mL (≈ 2.02 µM)
MIC ([1]; strain A22160, read-out: MIC): 6.3 µg/mL (≈ 15.9 µM)
MIC ([1]; strain A22161, read-out: MIC): 0.8 µg/mL (≈ 2.02 µM)
MIC ([1]; strain A22166, read-out: MIC): 3.1 µg/mL (≈ 7.84 µM)
MIC ([1]; strain A22175, read-out: MIC): 0.8 µg/mL (≈ 2.02 µM)
MIC ([1]; strain A22176, read-out: MIC): 3.1 µg/mL (≈ 7.84 µM)
MIC ([1]; strain A22177, read-out: MIC): 50 µg/mL (≈ 126 µM)
MIC ([2]; (GM) of the Enterobacter aerogenes strains, read-out: Geometric mean of MIC): 9.8 µg/mL (≈ 24.8 µM)
MIC ([2]; strain A20940, read-out: MIC): > 50 µg/mL
MIC ([2]; strain A20941, read-out: MIC): 6.3 µg/mL (≈ 15.9 µM)
MIC ([2]; strain A20943, read-out: MIC): 6.3 µg/mL (≈ 15.9 µM)
MIC ([2]; strain A20958, read-out: MIC): 6.3 µg/mL (≈ 15.9 µM)
MIC ([2]; strain A20961, read-out: MIC): 12.5 µg/mL (≈ 31.6 µM)
MIC ([2]; strain A20966, read-out: MIC): 6.3 µg/mL (≈ 15.9 µM)
MIC ([2]; strain A20971, read-out: MIC): 6.3 µg/mL (≈ 15.9 µM)
MIC ([2]; strain A20985, read-out: MIC): > 50 µg/mL
MIC ([2]; strain A20994, read-out: MIC): 25 µg/mL (≈ 63.2 µM)
MIC ([2]; strain A20996, read-out: MIC): 3.1 µg/mL (≈ 7.84 µM)
MIC ([2]; strain A21013, read-out: MIC): 6.3 µg/mL (≈ 15.9 µM)
MIC ([2]; strain A21036, read-out: MIC): 50 µg/mL (≈ 126 µM)
MIC ([2]; strain A21037, read-out: MIC): 3.1 µg/mL (≈ 7.84 µM)
MIC ([2]; strain A21038, read-out: MIC): 1.6 µg/mL (≈ 4.05 µM)
MIC ([2]; strain A21039, read-out: MIC): 6.3 µg/mL (≈ 15.9 µM)
MIC ([2]; strain A21043, read-out: MIC): 25 µg/mL (≈ 63.2 µM)
MIC ([2]; strain A21044, read-out: MIC): 25 µg/mL (≈ 63.2 µM)
MIC ([2]; strain A21118, read-out: MIC): > 50 µg/mL
MIC ([2]; strain A21120, read-out: MIC): 6.3 µg/mL (≈ 15.9 µM)
MIC ([2]; strain A21130-1, read-out: MIC): 6.3 µg/mL (≈ 15.9 µM)
MIC ([2]; strain A21131, read-out: MIC): 6.3 µg/mL (≈ 15.9 µM)
MIC ([2]; strain A21152, read-out: MIC): 1.6 µg/mL (≈ 4.05 µM)
MIC ([2]; strain A21155, read-out: MIC): 6.3 µg/mL (≈ 15.9 µM)
MIC ([2]; strain A21158, read-out: MIC): 6.3 µg/mL (≈ 15.9 µM)
MIC ([2]; strain A21503, read-out: MIC): 6.3 µg/mL (≈ 15.9 µM)
MIC ([3]; (GM) of the Enterobacter cloacae strains, read-out: Geometric mean of MIC): 21 µg/mL (≈ 53.1 µM)
MIC ([3]; strain A 9655, read-out: MIC): > 50 µg/mL
MIC ([3]; strain A 9659, read-out: MIC): > 50 µg/mL
MIC ([3]; strain A20344, read-out: MIC): > 50 µg/mL
MIC ([3]; strain A20364, read-out: MIC): 6.3 µg/mL (≈ 15.9 µM)
MIC ([3]; strain A20464, read-out: MIC): 3.1 µg/mL (≈ 7.84 µM)
MIC ([3]; strain A20650, read-out: MIC): 0.8 µg/mL (≈ 2.02 µM)
MIC ([3]; strain A22551, read-out: MIC): > 50 µg/mL
MIC ([4]; (GM) of the Morganella morganii strains, read-out: Geometric mean of MIC): 25 µg/mL (≈ 63.2 µM)
MIC ([4]; IFO3843, strain IFO 3843 MS-1, read-out: MIC): 12.5 µg/mL (≈ 31.6 µM)
MIC ([4]; strain A 9636, read-out: MIC): > 50 µg/mL
MIC ([4]; strain A20455, read-out: MIC): 12.5 µg/mL (≈ 31.6 µM)
MIC ([5]; (GM) of the Proteus mirabilis strains, read-out: Geometric mean of MIC): 0.14 µg/mL (≈ 0.354 µM)
MIC ([5]; IFO3849, strain IFO 3849 MS-1, read-out: MIC): 0.2 µg/mL (≈ 0.506 µM)
MIC ([5]; strain A 9554, read-out: MIC): 0.2 µg/mL (≈ 0.506 µM)
MIC ([5]; strain A 9702, read-out: MIC): 0.1 µg/mL (≈ 0.253 µM)
MIC ([5]; strain A 9716, read-out: MIC): 0.2 µg/mL (≈ 0.506 µM)
MIC ([5]; strain A20119, read-out: MIC): 0.1 µg/mL (≈ 0.253 µM)
MIC ([5]; strain A20342, read-out: MIC): 0.2 µg/mL (≈ 0.506 µM)
MIC ([5]; strain A20454, read-out: MIC): 0.1 µg/mL (≈ 0.253 µM)
MIC ([5]; strain A21222, read-out: MIC): 0.1 µg/mL (≈ 0.253 µM)
MIC ([6]; (GM) of the Proteus vulgaris strains, read-out: Geometric mean of MIC): 6.3 µg/mL (≈ 15.9 µM)
MIC ([6]; strain A 9436, read-out: MIC): 0.4 µg/mL (≈ 1.01 µM)
MIC ([6]; strain A 9526, read-out: MIC): 25 µg/mL (≈ 63.2 µM)
MIC ([6]; strain A 9699, read-out: MIC): 25 µg/mL (≈ 63.2 µM)
MIC ([6]; strain AKH-26, read-out: MIC): > 50 µg/mL
MIC ([6]; strain HX-19 MS-1, read-out: MIC): 0.8 µg/mL (≈ 2.02 µM)
MIC ([6]; strain OX-19 MS-1, read-out: MIC): 3.1 µg/mL (≈ 7.84 µM)
MIC ([7]; (GM) of the Providencia rettgeri strains, read-out: Geometric mean of MIC): 0.07 µg/mL (≈ 0.177 µM)
MIC ([7]; IFO3850, strain IFO 3850 MS-1, read-out: MIC): 0.013 µg/mL (≈ 0.0329 µM)
MIC ([7]; strain A 9637, read-out: MIC): < 0.0063 µg/mL
MIC ([7]; strain A15167 (first line), read-out: MIC): 0.013 µg/mL (≈ 0.0329 µM)
MIC ([7]; strain A15167 (second line), read-out: MIC): 0.1 µg/mL (≈ 0.253 µM)
MIC ([7]; strain A20645, read-out: MIC): 6.3 µg/mL (≈ 15.9 µM)
MIC ([7]; strain A20915, read-out: MIC): 3.1 µg/mL (≈ 7.84 µM)
MIC ([7]; strain A20920, read-out: MIC): 0.013 µg/mL (≈ 0.0329 µM)
MIC ([7]; strain A20921, read-out: MIC): 0.025 µg/mL (≈ 0.0632 µM)
MIC ([7]; strain A21205, read-out: MIC): 0.1 µg/mL (≈ 0.253 µM)
MIC ([7]; strain A21270, read-out: MIC): 0.1 µg/mL (≈ 0.253 µM)
MIC ([8]; (GM) of the Serratia marcescens strains, read-out: Geometric mean of MIC): 31 µg/mL (≈ 78.4 µM)
MIC ([8]; strain A20019, read-out: MIC): 12.5 µg/mL (≈ 31.6 µM)
MIC ([8]; strain A20222, read-out: MIC): 25 µg/mL (≈ 63.2 µM)
MIC ([8]; strain A20333, read-out: MIC): > 50 µg/mL
MIC ([8]; strain A20334, read-out: MIC): > 50 µg/mL
MIC ([8]; strain A20335, read-out: MIC): 12.5 µg/mL (≈ 31.6 µM)
MIC ([8]; strain A20336, read-out: MIC): 12.5 µg/mL (≈ 31.6 µM)
MIC ([8]; strain A20442, read-out: MIC): 3.1 µg/mL (≈ 7.84 µM)
MIC ([8]; strain A20459, read-out: MIC): > 50 µg/mL
MIC ([8]; strain A20460, read-out: MIC): 50 µg/mL (≈ 126 µM)
MIC ([8]; strain A20461, read-out: MIC): > 50 µg/mL
MIC ([9]; (GM) of the Serratia species strains, read-out: Geometric mean of MIC): > 50 µg/mL
MIC ([9]; strain 6-330, read-out: MIC): 25 µg/mL (≈ 63.2 µM)
MIC ([9]; strain 6-427, read-out: MIC): 25 µg/mL (≈ 63.2 µM)
MIC ([9]; strain 6-920, read-out: MIC): > 50 µg/mL
MIC ([9]; strain 7-255, read-out: MIC): > 50 µg/mL
MIC ([9]; strain 7-454, read-out: MIC): > 50 µg/mL
MIC ([9]; strain 7-2322, read-out: MIC): > 50 µg/mL
MIC ([9]; strain 8-185, read-out: MIC): > 50 µg/mL
MIC ([9]; strain 8-513, read-out: MIC): > 50 µg/mL
MIC ([9]; strain 8-785, read-out: MIC): > 50 µg/mL
MIC ([9]; strain 8-1537, read-out: MIC): > 50 µg/mL
MIC ([9]; strain 9-50, read-out: MIC): > 50 µg/mL
MIC ([9]; strain 9-690, read-out: MIC): > 50 µg/mL
